Activity calls are given as the source filed them. The rule behind the calls is not given here.
Experiments:
[1] = target: T1, Induced myeloid leukemia cell differentiation protein Mcl-1 (Homo sapiens, UniProt Q07820); test: Displacement of FAM-Bid from human Mcl-1 after 30 mins by fluorescence polarization assay
[2] = target: T1, Induced myeloid leukemia cell differentiation protein Mcl-1; test: Displacement of FAM-Bid from human Mcl-1 after 30 mins by ELISA
[3] = target: T2, Apoptosis regulator Bcl-2 (Homo sapiens, UniProt P10415); test: Displacement of FAM-Bid from human recombinant Bcl-2 after 30 mins by ELISA
MCF7 = test: Cytotoxicity against human MCF7 cells after 24 hrs by MTT assay; type: functional, cell-based; conditions: MCF7, 24 h
SMMC-7721 [4] = test: Cytotoxicity against human SMMC7721 cells after 24 hrs by MTT assay; type: functional, cell-based; conditions: SMMC-7721, 24 h
SMMC-7721 [5] = test: Cytotoxicity against human SMMC7721 cells expressing high level of Mcl-1 after 24 hrs by MTT assay; type: functional, cell-based; conditions: SMMC-7721, 24 h
HEK293 = test: Cytotoxicity against human HEK293 cells after 24 hrs by MTT assay; type: cell-based; conditions: HEK293, 24 h
[6] = target: T3, MCL1-BAK1 complex (Homo sapiens) (UniProt Q07820+Q16611); test: Inhibition of Mcl-1/Bak interaction in human MCF7 cells at 10 uM after 3 hrs by Western blotting; type: cell-based
[7] = target: T3, MCL1-BAK1 complex (Homo sapiens); test: Inhibition of Mcl-1/Bak interaction in human SMMC7721 cells at 10 uM after 3 hrs by Western blotting; type: cell-based; conditions: SMMC-7721
[8] = target: T2, Apoptosis regulator Bcl-2; test: Displacement of FAM-Bid from human Bcl-2 after 30 mins by fluorescence polarization assay
[9] = target: T4, Apoptosis regulator BAX/Induced myeloid leukemia cell differentiation protein Mcl-1 (Homo sapiens) (UniProt Q07820+Q07812); test: Inhibition of Mcl-1/Bax interaction in human MCF7 cells at 10 uM after 3 hrs by Western blotting; type: cell-based
[10] = target: T4, Apoptosis regulator BAX/Induced myeloid leukemia cell differentiation protein Mcl-1 (Homo sapiens); test: Inhibition of Mcl-1/Bax interaction in human SMMC7721 cells at 10 uM after 3 hrs by Western blotting; type: cell-based; conditions: SMMC-7721
[11] = target: T2, Apoptosis regulator Bcl-2; test: Binding affinity to Bcl-2
[12] = target: T1, Induced myeloid leukemia cell differentiation protein Mcl-1; test: Binding affinity to Mcl-1
[13] = target: T3, MCL1-BAK1 complex (Homo sapiens); test: Inhibition of Mcl-1/Bak interaction in human SMMC7721 cells expressing high level of Mcl-1 at 10 uM after 3 hrs by Western blotting; type: cell-based; conditions: SMMC-7721

T1 sequence (Q07820 whole entry): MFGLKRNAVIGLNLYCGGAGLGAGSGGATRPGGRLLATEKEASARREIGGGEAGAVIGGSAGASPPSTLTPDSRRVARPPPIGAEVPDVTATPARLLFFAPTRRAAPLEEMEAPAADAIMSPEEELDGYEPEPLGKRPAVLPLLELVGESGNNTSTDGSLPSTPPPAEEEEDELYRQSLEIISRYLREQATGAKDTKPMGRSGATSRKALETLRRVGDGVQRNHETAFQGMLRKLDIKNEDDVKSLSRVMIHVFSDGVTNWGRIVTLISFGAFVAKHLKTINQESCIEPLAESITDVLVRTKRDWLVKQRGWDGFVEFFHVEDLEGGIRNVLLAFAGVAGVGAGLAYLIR
T2 sequence (P10415 whole entry): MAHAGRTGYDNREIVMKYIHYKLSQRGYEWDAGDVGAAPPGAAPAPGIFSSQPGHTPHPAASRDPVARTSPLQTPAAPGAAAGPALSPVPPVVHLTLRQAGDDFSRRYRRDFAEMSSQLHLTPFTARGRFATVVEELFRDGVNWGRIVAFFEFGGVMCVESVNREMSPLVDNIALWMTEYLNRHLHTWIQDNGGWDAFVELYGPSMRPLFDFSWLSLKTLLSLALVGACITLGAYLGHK
T4 sequence (Q07812 whole entry, looked up): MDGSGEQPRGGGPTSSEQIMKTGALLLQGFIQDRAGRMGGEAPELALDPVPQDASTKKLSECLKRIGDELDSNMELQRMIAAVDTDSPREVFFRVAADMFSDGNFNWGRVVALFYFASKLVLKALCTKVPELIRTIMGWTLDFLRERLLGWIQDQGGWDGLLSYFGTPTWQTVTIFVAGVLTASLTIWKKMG
T4 sequence (Q07820 whole entry, looked up): as the sequence (Q07820 whole entry) above

| Structure (SMILES) | Ki [1] [nM] | IC50 (MCF7) [nM] | IC50 (SMMC-7721 [4]) [nM] | IC50 (SMMC-7721 [5]) [nM] | IC50 (HEK293) [nM] | also measured |
| --- | --- | --- | --- | --- | --- | --- |
| CCC(C)(C)c1ccc(Sc2ccc3c4c(cccc24)C2=NC(=O)C(C#N)=C23)cc1 | 961 | 21300 | 11900 | 25600 | > 50000 | IC50 [2]: 585 nM; IC50 [3]: 342 nM |
| CCC(C)(C)c1ccc(Oc2ccc3c4c(cccc24)C2=NC(=O)C(C#N)=C23)cc1 | 967 | – | – | – | – | – |
| COc1ccc(Oc2ccc3c4c(cccc24)C2=NC(=O)C(C#N)=C23)cc1 | 258 | – | – | – | – | – |
| COc1ccc(Sc2ccc3c4c(cccc24)C2=NC(=O)C(C#N)=C23)cc1 | 151 | – | – | – | – | – |
| Cc1ccc(Oc2ccc3c4c(cccc24)C2=NC(=O)C(C#N)=C23)cc1 | 1920 | – | – | – | – | – |
| N#CC1=C2C(=NC1=O)c1cccc3c(Sc4ccccc4)ccc2c13 | – | > 50000 | > 50000 | > 50000 | > 50000 | Activity [6]: inactive; Activity [7]: inactive |
| N#CC1=C2C(=NC1=O)c1cccc3c(Sc4ccc(-c5ccccc5)cc4)ccc2c13 | 842 | – | – | – | – | – |
| N#CC1=C2C(=NC1=O)c1cccc3c(N4CCSCC4)ccc2c13 | 62 | 90 | 170 | 190 | > 100000 | IC50 [2]: 35 nM; IC50 [3]: 285 nM; Ki [8]: 319 nM; Activity [9]: Active; Activity [10]: Active; Ki [11]: 310 nM; Ki [12]: 58 nM |
| N#CC1=C2C(=NC1=O)c1cccc3c(Oc4ccc(-c5ccccc5)cc4)ccc2c13 | 1280 | – | – | – | – | – |
| CN(C)c1ccc(Sc2ccc3c4c(cccc24)C2=NC(=O)C(C#N)=C23)cc1 | 91 | – | – | – | – | – |
| CN(C)c1ccc(Oc2ccc3c4c(cccc24)C2=NC(=O)C(C#N)=C23)cc1 | 122 | – | – | – | – | – |
| N#CC1=C2C(=NC1=O)c1cccc3c(Sc4ccc(Br)cc4)ccc2c13 | 49 | 90 | 190 | 180 | > 50000 | Ki [8]: 382 nM; Activity [9]: Active; Activity [10]: Active |
| CC(C)c1ccc(Oc2ccc3c4c(cccc24)C2=NC(=O)C(C#N)=C23)cc1 | 99 | – | – | – | – | – |
| Cc1ccc(Sc2ccc3c4c(cccc24)C2=NC(=O)C(C#N)=C23)cc1 | 1510 | – | – | – | – | – |
| CC(C)c1ccc(Sc2ccc3c4c(cccc24)C2=NC(=O)C(C#N)=C23)cc1 | 82 | – | – | – | – | – |
| N#CC1=C2C(=NC1=O)c1cccc3c(Sc4ccc(N)cc4)ccc2c13 | – | 12 | 18 | 16 | > 50000 | IC50 [2]: 5 nM; IC50 [3]: 302 nM; Activity [6]: Active; Activity [7]: Active; Activity [13]: inactive; Activity [9]: Active; Activity [10]: Active |
